Legend:
[1] = biological target: mouse TRPM8 (mTRPM8) (Mus musculus, UniProt Q8R4D5); experiment: whole-cell patch clamp, shift of voltage for half-maximal activation; assay type: cell-based; conditions: agonist; 30 µM rapamycin, calcium-free, pH 7.4, 33 °C
[2] = biological target: rat TRPM8 (Rattus norvegicus, UniProt Q8R455); experiment: Fura-2 ratiometric calcium imaging, agonist dose-response; assay type: cell-based
rat TRPM8, sequence (Q8R455 whole entry): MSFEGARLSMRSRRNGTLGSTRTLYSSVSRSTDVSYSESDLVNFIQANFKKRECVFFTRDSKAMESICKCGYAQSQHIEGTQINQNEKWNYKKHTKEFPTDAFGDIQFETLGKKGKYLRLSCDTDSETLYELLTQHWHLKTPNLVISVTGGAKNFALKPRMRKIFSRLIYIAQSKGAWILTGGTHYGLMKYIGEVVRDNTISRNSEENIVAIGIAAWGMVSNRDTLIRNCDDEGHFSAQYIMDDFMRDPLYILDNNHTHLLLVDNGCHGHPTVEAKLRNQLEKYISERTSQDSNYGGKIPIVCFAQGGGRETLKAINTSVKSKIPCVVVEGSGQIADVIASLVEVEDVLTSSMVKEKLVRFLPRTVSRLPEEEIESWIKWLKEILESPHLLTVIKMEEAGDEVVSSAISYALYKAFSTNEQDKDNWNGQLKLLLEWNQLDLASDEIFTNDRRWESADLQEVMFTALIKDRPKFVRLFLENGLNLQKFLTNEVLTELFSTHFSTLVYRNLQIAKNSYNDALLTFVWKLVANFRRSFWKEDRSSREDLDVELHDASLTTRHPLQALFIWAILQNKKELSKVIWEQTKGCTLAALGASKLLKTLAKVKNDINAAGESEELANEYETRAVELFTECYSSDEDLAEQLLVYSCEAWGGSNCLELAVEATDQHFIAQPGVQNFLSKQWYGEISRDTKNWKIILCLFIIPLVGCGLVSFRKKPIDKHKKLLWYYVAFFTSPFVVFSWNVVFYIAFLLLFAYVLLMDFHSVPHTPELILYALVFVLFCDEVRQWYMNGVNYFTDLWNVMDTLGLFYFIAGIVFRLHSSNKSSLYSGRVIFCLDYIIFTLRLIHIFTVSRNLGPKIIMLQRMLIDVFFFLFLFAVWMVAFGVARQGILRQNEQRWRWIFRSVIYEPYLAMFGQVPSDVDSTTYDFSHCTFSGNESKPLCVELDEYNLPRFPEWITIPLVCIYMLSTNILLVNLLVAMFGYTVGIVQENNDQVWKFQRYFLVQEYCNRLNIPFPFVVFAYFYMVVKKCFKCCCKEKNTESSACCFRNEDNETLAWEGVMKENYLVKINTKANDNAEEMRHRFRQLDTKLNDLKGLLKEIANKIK

mouse TRPM8 (mTRPM8), sequence (Q8R4D5 whole entry): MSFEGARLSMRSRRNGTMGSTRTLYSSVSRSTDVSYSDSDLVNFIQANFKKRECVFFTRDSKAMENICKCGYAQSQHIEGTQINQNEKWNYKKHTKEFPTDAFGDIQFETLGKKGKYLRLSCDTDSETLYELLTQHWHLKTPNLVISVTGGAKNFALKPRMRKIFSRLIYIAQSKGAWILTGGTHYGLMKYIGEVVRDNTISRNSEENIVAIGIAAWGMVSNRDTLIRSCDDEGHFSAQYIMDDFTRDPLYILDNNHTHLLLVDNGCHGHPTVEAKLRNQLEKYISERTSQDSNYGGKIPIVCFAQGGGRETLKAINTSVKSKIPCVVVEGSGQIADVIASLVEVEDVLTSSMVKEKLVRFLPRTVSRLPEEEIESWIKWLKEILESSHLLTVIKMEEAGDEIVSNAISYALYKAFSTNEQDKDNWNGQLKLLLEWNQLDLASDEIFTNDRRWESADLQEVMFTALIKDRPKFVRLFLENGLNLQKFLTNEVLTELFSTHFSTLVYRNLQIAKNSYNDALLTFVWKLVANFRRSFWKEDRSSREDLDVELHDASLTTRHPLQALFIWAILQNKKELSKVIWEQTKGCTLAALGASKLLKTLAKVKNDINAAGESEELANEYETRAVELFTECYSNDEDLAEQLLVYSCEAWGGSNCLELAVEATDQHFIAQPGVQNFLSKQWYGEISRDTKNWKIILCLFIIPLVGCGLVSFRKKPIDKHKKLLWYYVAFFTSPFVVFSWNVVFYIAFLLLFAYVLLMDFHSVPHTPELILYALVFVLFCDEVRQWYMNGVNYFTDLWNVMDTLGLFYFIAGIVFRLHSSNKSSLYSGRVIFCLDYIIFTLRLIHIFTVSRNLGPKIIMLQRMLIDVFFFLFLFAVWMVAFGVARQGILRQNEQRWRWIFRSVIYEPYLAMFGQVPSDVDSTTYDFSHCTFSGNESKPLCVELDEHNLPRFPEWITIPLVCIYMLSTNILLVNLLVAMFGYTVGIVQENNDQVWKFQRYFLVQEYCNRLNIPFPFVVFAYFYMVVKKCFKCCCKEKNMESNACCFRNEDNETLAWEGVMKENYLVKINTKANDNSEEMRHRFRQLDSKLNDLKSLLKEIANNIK

ΔV1/2 [1]: −102.1 ± 5.2 mV
EC50 [2]: 6.5 ± 1.5 µM
Compound: CO[C@H]1C[C@@H]2CC[C@@H](C)[C@@](O)(O2)C(=O)C(=O)N2CCCC[C@H]2C(=O)O[C@H]([C@H](C)C[C@@H]2CC[C@@H](O)[C@H](OC)C2)CC(=O)[C@H](C)/C=C(\C)[C@@H](O)[C@@H](OC)C(=O)[C@H](C)C[C@H](C)/C=C/C=C/C=C/1C [rapamycin]

From paper doi:10.1101/2024.01.24.577111v1 (biorxiv, 2024)
